Results on six sequences are retold here after paper PMC10447463, “Data-mining unveils structure–property–activity correlation of viral infectivity enhancing self-assembling peptides” (Nature Communications, 2023).

Series [1] is classed as physicochemical. The arrangement: key to Fibril / Fibril Formation / TEM 2cat / Fibril: 1 = fibrils present; 0 non-fibrillar structures. The following applies: for Fibril / Fibril Formation: 1 mg/mL, uranyl acetate stain, qualitative.
The format of series [2] is physicochemical. The following applies: for Tht category (> 2 to blank = +): Fig S10 panel D; for ThT Cat,: ThT category; for ThT Cat. / ThT-Fluorescence (categorical): ThT-active if fluorescence at least twice the control. The gist of the method:
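Fibrils (1 mg/mL solution) were mixed with 50 µM ThT in PBS for 15 min at RT, and fluorescence was read at λex 440/λem 488 nm against a PBS blank, as a triplicate mean ± SD. Zeta potential came from electrophoretic mobility (Smoluchowski) after 1 d aggregation at 1 mg/mL in PBS pH 7.4, diluted into 1 mM KCl.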

A short description of series [3]: Turbidity, derived count rate of scattered light. Type of series: physicochemical. The note with it: for Count Rate: derived count rate of scattered light (turbidity); for Log10 Count Rate: turbidity, derived count rate of scattered light, data of Figure 2D.
Setting [4] is: Fig S10 panel D, fibril category by TEM.
Setting [5] is: TEM, 1 = fibrils present, 0 = non-fibrillar.
[6] abbreviates: TEM, 1 = fibrils present, 0 = non-fibrillar structures.
Setting [7] is: category: fibrils present or non-fibrillar.
The mark [8] stands for this setting: ThT fluorescence category, 1 if Rel. ThT >2.

Read-outs that look alike come from different tables or passages of the source.

As to RGDKIKIQIC, the “TEM 2cat” value in series [1] (setting [4]) and in series [1] (setting [7]) was 1 in each case. Also, the Fibril in series [1] (Fig S10 panel E), in series [1] (setting [5]) and in series [1] (setting [6]) was 1 each time. Also, the “Fibril / Fibril Formation” value in series [1] (TEM) stood at 1. Further, the “Tht category (> 2 to blank = +)” value in series [2] is on record as 1 (ThT. Cat is 1, if Rel. ThT >2). The “ThT Cat.” value in series [2] (Fig S10 panel E) is 1 (ThT. Cat is 1, if Rel. ThT >2); in series [2] (setting [8]) it was 1 (ThT. Cat is 1, if Rel. ThT >2). For the same sequence, the “ThT Cat,” value in series [2] (1 if Rel. ThT >2) is 1 (ThT. Cat is 1, if Rel. ThT >2). The “ThT Cat. / ThT-Fluorescence (categorical)” value (shortened to “ThT Cat. / ThT-Fluorescence”) in series [2] is 1 (ThT. Cat is 1, if Rel. ThT >2). The “Count Rate” value in series [3] came to 7509. The “Log10 Count Rate” value in series [3] amounted to 3.876.

For the sequence RGDKIKIQINM, the “TEM 2cat” value in series [1] (setting [4]) and in series [1] (setting [7]) was 1 throughout. In addition, the Fibril in series [1] (Fig S10 panel E), in series [1] (setting [5]) and in series [1] (setting [6]) was 1 in each case. In series [1] (TEM), the “Fibril / Fibril Formation” value was determined as 1. In series [2], the “Tht category (> 2 to blank = +)” value was 1 (ThT. Cat is 1, if Rel. ThT >2). Also, the “ThT Cat.” value was 1 (ThT. Cat is 1, if Rel. ThT >2) in series [2] (Fig S10 panel E) and 1 (ThT. Cat is 1, if Rel. ThT >2) in series [2] (setting [8]). Besides, the “ThT Cat,” value in series [2] (1 if Rel. ThT >2) is 1 (ThT. Cat is 1, if Rel. ThT >2). Further, in series [2], the “ThT Cat. / ThT-Fluorescence” value is 1 (ThT. Cat is 1, if Rel. ThT >2). For the same sequence, the “Count Rate” value in series [3] worked out at 57.2. The “Log10 Count Rate” value in series [3] is reported as 1.7574.

For RGDKIKIQINMC, the “Fibril / Fibril Formation” value in series [1] (TEM) is given as 1. Moreover, the Fibril in series [1] (setting [5]) and in series [1] (setting [6]) was 1 in each case. Also, the “TEM 2cat” value in series [1] (setting [7]) is reported as 1. Also, in series [2] (1 if Rel. ThT >2), the “ThT Cat,” value was 0 (ThT-inactive (N-Fold <2)). In addition, the “ThT Cat.” value in series [2] (setting [8]) is 0 (ThT-inactive (N-Fold <2)). For the same sequence, the “ThT Cat. / ThT-Fluorescence” value in series [2] was 0 (ThT-inactive (N-Fold <2)). In addition, in series [3], the “Count Rate” value was 1404. In addition, the “Log10 Count Rate” value in series [3] came to 3.147.

In the case of RGDKIKIQINMWQ, the “TEM 2cat” value in series [1] (setting [4]) and in series [1] (setting [7]) was 1 each time. In addition, the Fibril in series [1] (Fig S10 panel E), in series [1] (setting [5]) and in series [1] (setting [6]) was 1 in each case. The “Fibril / Fibril Formation” value in series [1] (TEM) worked out at 1. The “Tht category (> 2 to blank = +)” value in series [2] is 0 (ThT-inactive (N-Fold <2)). For the same sequence, the “ThT Cat.” value in series [2] (Fig S10 panel E) and in series [2] (setting [8]) was 0 (ThT-inactive (N-Fold <2)) throughout. Besides, the “ThT Cat,” value in series [2] (1 if Rel. ThT >2) is 0 (ThT-inactive (N-Fold <2)). For the same sequence, in series [2], the “ThT Cat. / ThT-Fluorescence” value was 0 (ThT-inactive (N-Fold <2)). Moreover, the “Count Rate” value in series [3] is on record as 1554. Besides, the “Log10 Count Rate” value in series [3] is listed as 3.1914.

For the sequence RGDSGGGGGGKIKIQIC, the “TEM 2cat” value in series [1] (setting [4]) and in series [1] (setting [7]) was 1 in each case. For the same sequence, the Fibril in series [1] (Fig S10 panel E), in series [1] (setting [5]) and in series [1] (setting [6]) was 1 in each case. For the same sequence, the “Fibril / Fibril Formation” value in series [1] (TEM) worked out at 1. Further, in series [2], the “Tht category (> 2 to blank = +)” value is given as 1 (ThT. Cat is 1, if Rel. ThT >2). Besides, the “ThT Cat.” value in series [2] (Fig S10 panel E) is given as 1 (ThT. Cat is 1, if Rel. ThT >2); in series [2] (setting [8]) it was 1 (ThT. Cat is 1, if Rel. ThT >2). The “ThT Cat,” value in series [2] (1 if Rel. ThT >2) is 1 (ThT. Cat is 1, if Rel. ThT >2). In series [2], the “ThT Cat. / ThT-Fluorescence” value is on record as 1 (ThT. Cat is 1, if Rel. ThT >2). In addition, in series [3], the “Count Rate” value was 10416.16667. The “Log10 Count Rate” value in series [3] is recorded as 4.018.

In the case of RGDSKIKIQIC, the “TEM 2cat” value in series [1] (setting [4]) and in series [1] (setting [7]) was 1 in each case. Further, the Fibril in series [1] (Fig S10 panel E), in series [1] (setting [5]) and in series [1] (setting [6]) was 1 each time. In addition, the “Fibril / Fibril Formation” value in series [1] (TEM) is 1. In addition, the “Tht category (> 2 to blank = +)” value in series [2] is on record as 1 (ThT. Cat is 1, if Rel. ThT >2). In addition, the “ThT Cat.” value in series [2] (Fig S10 panel E) is 1 (ThT. Cat is 1, if Rel. ThT >2); in series [2] (setting [8]) it was 1 (ThT. Cat is 1, if Rel. ThT >2). Further, the “ThT Cat,” value in series [2] (1 if Rel. ThT >2) is listed as 1 (ThT. Cat is 1, if Rel. ThT >2). The “ThT Cat. / ThT-Fluorescence” value in series [2] is 1 (ThT. Cat is 1, if Rel. ThT >2). The “Count Rate” value in series [3] is 2699. In series [3], the “Log10 Count Rate” value is recorded as 3.431.
